According to patent publication US11161845B2, “Pyrrolopyridine-aniline compounds for treatment of dermal disorders” (Nflection Therapeutics, Inc., priority 2017, dated 2021):

Assays:
[1] = clinically tested; cited from earlier work
MDCK-MDR1 cells = assay: in vitro; conditions: dog, MDCK-MDR1, 1 h, 5 μM
Method: (§1) MDCK-MDR1 is a stable-transfected cell line originating from MDCK cells, with over-expression of human MDR1 gene. The cell line is widely used for the identification and characterization of P-gp substrates and inhibitors.
(§2) MDCK-MDR1 cells were plated into 96-well Millipore Millicell-96 plates at 7,500 cells/75 μL/well and incubated for three days at 37° C. with 5% CO2. Cells were washed with Hank's Balanced Salt Solution (HBSS) with 5 mM HEPES for 30 minutes before starting the experiment. Test compound solutions were prepared by diluting DMSO stock into HBSS buffer, resulting in a final DMSO concentration of 0.1%. Prior to the experiment, cell monolayer integrity was verified by […] electrical resistance (TEER). Transport experiment was initiated by adding test compounds to the apical (75 μL) or basal (250 μL) side. Transport plates were incubated at 37° C. in a humidified incubator with 5% CO2. Samples were taken from the donor and acceptor compartments after one hour and analyzed by liquid chromatography with tandem mass spectrometry (LC/MS/MS).
(§3) Digoxin was used as reference control.
(§4) Apparent permeability (Papp) values were calculated using the following equation: Papp=(dQ/dt)/A/Co; where dQ/dt is the initial rate of amount of test compound transported across cell monolayer, A is the surface area of the filter membrane, and Co is the initial concentration of the test compound, calculated for each direction using a 4-point calibration curve by LC/MS/MS.
(§5) Net flux ratio between the two directional transports was calculated by the following equation: Ratio=Papp, B-A/Papp, A-B; where Papp, B-A and Papp, A-B represent the apparent permeability of test compound from the basal-to-apical and apical-to-basal side of the cellular monolayer, respectively.
(§6) Recovery was calculated based on the compound concentration at the end of the experiment, compared to that at the beginning of the experiment, adjusted for volumes.
(§7) A net flux ratio greater than two was considered a positive result for substrate determination. […] If the addition of a known P-gp inhibitor to the experiment reduces the net flux ratio by a significant amount (more than 50% reduction or reduces the ratio to close to unity), it is likely that the compound tested is a P-gp substrate.

P-gp (human MDR1) = assay: in vitro; conditions: dog; for Papp A→B at 1 h, 5 μM / Papp B→A at 1 h, 5 μM: MDCK-MDR1, Papp
Method: as §1, §2, §3, §4, §5, §6, §7

[2] = S9 stability assay, human liver S9 fraction; format: in vitro ADME; conditions: for CLint: known MEK compounds; for microsomal CLint at 1 μM / half-life at 1 μM: pH 7.4, Table 1, human liver S9 fraction; for microsomal CLint at 1 μM: read-out: CLint; for half-life at 1 μM: read-out: Liver S9 t1/2
Method: Compounds were assessed for metabolic stability in human skin by assessing their rate of disappearance from human S9 skin fraction. Similarly, compounds were assessed for metabolic stability in human liver by assessing their rate of disappearance from human S9 liver fraction. The protocol below can be used to assess the difference between skin and hepatic metabolism.
The assay was carried out in 96-well microtiter plates at 37° C. Reaction mixtures (25 μL) contained a final concentration of 1 μM test compound, 2 mg/mL liver or skin S9 protein, and 1 mM NADPH in buffer (100 mM potassium phosphate, pH 7.4 buffer with 1 mM EDTA, 3 mM MgCl2). At each of the time points (0, 15, 30, and 60 minutes), 150 μL of quench solution (100% acetonitrile with 0.1% formic acid) with internal standard was transferred to each well. Besides the zero minute controls, mixtures containing the same components except the NADPH were also prepared as the negative control. Verapamil or testosterone was included as a positive control to verify assay performance. Plates were sealed and centrifuged at 4° C. for 15 minutes at 4000 rpm. The supernatant was transferred to fresh plates for LC/MS/MS analysis.
All samples were analyzed on LC/MS/MS using an AB Sciex API 4000 instrument, coupled to a Shimadzu LC-20AD LC Pump system. Analytical samples were separated using a Waters Atlantis T3 dC18 reverse phase HPLC column (20 mm×2.1 mm) at a flow rate of 0.5 mL/min. The mobile phase consisted of 0.1% formic acid in water (solvent A) and 0.1% formic acid in 100% acetonitrile (solvent B).
The extent of metabolism was calculated as the disappearance of the test compound, compared to the 0-min control reaction incubations. Initial rates were calculated for the compound concentration and used to determine t1/2 values and subsequently, the intrinsic clearance, CLint=(0.693) (1/t1/2 (min)) (mL incubation/mg of S9 protein).

hERG channel protein = target: T1, hERG channel protein (Homo sapiens, UniProt Q12809); assay: hERG screening assay (Predictor hERG FP); format: binding; conditions: fluorescence polarization tracer displacement
T1 construct: purchased ThermoFisher PV5365
T1 sequence (Q12809 whole entry): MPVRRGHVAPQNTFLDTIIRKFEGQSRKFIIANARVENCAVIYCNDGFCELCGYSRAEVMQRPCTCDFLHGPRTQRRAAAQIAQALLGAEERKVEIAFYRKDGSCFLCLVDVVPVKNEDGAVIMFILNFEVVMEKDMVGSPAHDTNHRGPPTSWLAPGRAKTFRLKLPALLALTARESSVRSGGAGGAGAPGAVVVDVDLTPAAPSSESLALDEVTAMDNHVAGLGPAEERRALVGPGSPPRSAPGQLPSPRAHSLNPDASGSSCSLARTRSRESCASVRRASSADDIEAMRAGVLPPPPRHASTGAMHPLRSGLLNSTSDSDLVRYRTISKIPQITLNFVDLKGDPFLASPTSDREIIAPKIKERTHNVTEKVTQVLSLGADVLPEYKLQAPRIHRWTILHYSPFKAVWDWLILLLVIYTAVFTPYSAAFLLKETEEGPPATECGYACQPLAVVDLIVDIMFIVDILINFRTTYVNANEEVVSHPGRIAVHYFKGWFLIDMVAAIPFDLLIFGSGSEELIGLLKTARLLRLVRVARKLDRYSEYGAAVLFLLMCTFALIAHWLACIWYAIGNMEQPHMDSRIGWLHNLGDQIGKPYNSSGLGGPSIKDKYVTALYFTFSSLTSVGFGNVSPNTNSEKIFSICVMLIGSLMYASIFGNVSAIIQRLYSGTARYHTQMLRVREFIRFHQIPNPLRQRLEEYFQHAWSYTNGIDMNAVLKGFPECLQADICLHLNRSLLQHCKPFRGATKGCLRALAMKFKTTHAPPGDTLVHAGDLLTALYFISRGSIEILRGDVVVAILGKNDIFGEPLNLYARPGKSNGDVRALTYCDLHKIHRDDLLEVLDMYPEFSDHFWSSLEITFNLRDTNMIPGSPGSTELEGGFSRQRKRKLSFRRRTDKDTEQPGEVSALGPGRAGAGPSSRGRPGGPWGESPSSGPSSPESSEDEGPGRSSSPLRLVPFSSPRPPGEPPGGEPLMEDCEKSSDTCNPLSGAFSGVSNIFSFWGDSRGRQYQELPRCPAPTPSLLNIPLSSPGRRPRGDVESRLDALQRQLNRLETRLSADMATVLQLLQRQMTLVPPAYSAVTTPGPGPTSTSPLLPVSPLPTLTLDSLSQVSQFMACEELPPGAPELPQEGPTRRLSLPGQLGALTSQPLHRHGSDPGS
Method: hERG screening was conducted using a procedure similar to the procedure described by Piper et al. (Piper, D. R. et al., Assay Drug Dev. Technol. 2008, 6(2):213-223). The Predictor hERG FP assay (available from ThermoFisher, cat. no. PV5365) is a homogenous, fluorescence polarization biochemical-based format utilizing a membrane fraction containing hERG channel protein (Predictor hERG Membrane) and a high affinity, red-fluorescent hERG channel ligand (Predictor hERG Tracer Red). When the Predictor hERG Tracer ligand is bound to the hERG channel it produces high fluorescence polarization values. Compounds that bind to the hERG channel protein (competitors) displace the Predictor hERG Tracer Red resulting in decreased fluorescence polarization values.
Test compounds were solubilized in DMSO at 100× (or greater) of the desired starting concentration. Screening was conducted with a final concentration of 1% DMSO. For 10-point titrations, 3-fold serial dilutions were performed from the starting concentrations. The assay buffer used was 25 mM HEPES (pH 7.5), 15 mM KCl, 1 mM MgCl2, and 0.05% Pluronic F-127 (available from Sigma-Aldrich).
Predictor hERG membranes were stored as a 2× stock at −80° C. Each membrane lot was titrated to identify the concentration of membranes required to obtain ˜70% bound tracer. Before setting up the assay the membranes were thawed in a 37° C. water bath and stored at room temperature. To avoid light scatter caused by large membrane particulates the membranes were sonicated until a homogeneous solution free of particulates is obtained. […]
384 well untreated low-volume polystyrene microplates (Corning Cat. #4511) were used for the assay. […] The assay plate was read on a fluorescence plate reader (Tecan Safire^2) and the data was analyzed. […]
Assay blank control wells consisted of Predictor hERG Membranes and Assay Buffer. The blank wells were used for background subtraction of raw parallel and perpendicular fluorescence values prior to the calculation of polarization values. […]

Row | Papp, A-B Value (MDCK-MDR1 cells) [×10⁻⁶ cm/s] | Papp, B-A Value (MDCK-MDR1 cells) [×10⁻⁶ cm/s] | Recover Rate (MDCK-MDR1 cells) [%] | efflux ratio at 1 h, 5 μM (P-gp (human MDR1); MDCK-MDR1) | Papp A→B at 1 h, 5 μM (P-gp (human MDR1); A-B Mean) [×10⁻⁶ cm/s] | Papp A→B at 1 h, 5 μM (P-gp (human MDR1); A-B Value) [×10⁻⁶ cm/s] | Papp B→A at 1 h, 5 μM (P-gp (human MDR1); B-A Mean) [×10⁻⁶ cm/s] | Papp B→A at 1 h, 5 μM (P-gp (human MDR1); B-A Value) [×10⁻⁶ cm/s] | CLint [2] [μL/min/mg protein] | microsomal CLint at 1 μM [2] [µL/min/mg] | half-life at 1 μM [2] [h] | SMILES | side effects [1] | IC50 (hERG channel protein) [µM]
1 |  |  |  |  |  |  |  |  |  |  |  | O=C(NOC[C@H](O)CO)c1ccc(F)c(F)c1Nc1ccc(I)cc1F [PD0325901] | neurological side effects associated with ataxia, confusion, and syncope | 
2 | 12.9 | 43.7 | 99 | 3.4 | 12.8 | 12.7 | 43.5 | 43.2 | 5.27 | 5.27 | 1.1 | Cn1c(C(=O)NOCCO)c(Nc2ccc(I)cc2F)c2cnccc21 [Example C8] |  | 1.8
3 |  |  |  |  |  |  |  |  | 2.20 | 2.2 | 2.63 | O=C(NOC[C@H](O)CO)c1c(Nc2ccc(I)cc2F)sc2ncccc12 [Example C9] |  | 7.3
